From patent US8546414B2, “Ion channel modulators and methods of use” (Vertex Pharmaceuticals Incorporated, priority 2004, dated 2013)

Legend:
CaV2.2 = target: T1, CaV2.2 (Homo sapiens, UniProt Q00975); experiment: VIPR optical membrane potential assay with electrical stimulation, CaV2.2; type: cell-based; details: Table 9, CaV 2.2 receptors
T1 construct: expressed in transfected cells; host or cells: HEK293
Experimental: A. Optical Methods for Assaying CaV Inhibition Properties of Compounds:
(§1) Antagonist properties of test compounds were assessed as follows. Cells expressing the CaV of interest were placed into microtiter plates. After an incubation period, the cells were stained with fluorescent dyes sensitive to the transmembrane potential. The test compounds were added to the microtiter plate. The cells were stimulated with electrical means to evoke a CaV dependent membrane potential change from unblocked channels, which was detected and measured with trans-membrane potential-sensitive dyes. Antagonists were detected as a decreased membrane potential response to the stimulus.
(§2) VIPR® Optical Membrane Potential Assay Method with Electrical Stimulation
The following is an example of how CaV2.2 inhibition activity is measured using the optical membrane potential method. Other subtypes are performed in an analogous mode in a cell line expressing the CaV of interest.
HEK293 cells stably expressing CaV2.2 are plated into 96-well microtiter plates. After an appropriate incubation period, the cells are stained with the voltage sensitive dyes CC2-DMPE/DiSBAC2(3) as follows.
(§3) 2X CC2-DMPE=20 μM CC2-DMPE: 10 mM CC2-DMPE is vortexed with an equivalent volume of 10% Pluronic, followed by vortexing in required amount of HBSS containing 10 mM HEPES. Each cell plate will require 5 mL of 2×CC2-DMPE. 50 μL of 2×CC2-DMPE is added to wells containing washed cells, resulting in a 10 μM final staining concentration. The cells are stained for 30 minutes in the dark at RT.
Vortex in required amount of Bath X with beta-cyclodextrin. Each 96 well cell plate will require 5 ml of 2XCC2DMPE. Wash plate with ELx405 with Bath X, leaving a residual volume of 50 μL/well. Add 50 μL of 2XCC2DMPE & […] to each well. Stain for 30 minutes in the dark at RT.
Allow solution to sit for 10 minutes. Slowly mix in 370 mM BaCl2. This solution can be used to solvate compound plates. Note that compound plates are made at 1.5× drug concentration and not the usual 2X. Wash CC2 stained plate, again, leaving residual volume of 50 μL. Add 100 uL/well of the AY17 solution. Stain for 15 minutes in the dark at RT. Run plate on the optical reader.
(§4) The instrument comprises a microtiter plate handler, an optical system for exciting the coumarin dye while simultaneously recording the coumarin and oxonol emissions, a waveform generator, a current- or voltage-controlled amplifier, and a device for inserting electrodes in well. Under integrated computer control, this instrument passes user-programmed electrical stimulus protocols to cells within the wells of the microtiter plate.
Insert or use electrodes into each well to be assayed.
(§5) Use the current-controlled amplifier to deliver stimulation wave pulses for 3-5 s. Two seconds of pre-stimulus recording are performed to obtain the un-stimulated intensities. Five seconds of post-stimulation recording are performed to examine the relaxation to the resting state.
(§6) Data are analyzed and reported as normalized ratios of background-subtracted emission intensities measured in the 460 nm and 580 nm channels. Background intensities are then subtracted from each assay channel. Background intensities are obtained by measuring the emission intensities during the same time periods from identically treated assay wells in which there are no cells. The response as a function of time is then reported as the ratios obtained using the following formula: […]
(§7) The data is further reduced by calculating the initial (Ri) and final (Rf) ratios. These are the average ratio values during part or all of the pre-stimulation period, and during sample points during the stimulation period. The response to the stimulus R=Rf/Ri is then calculated.
Control responses are obtained by performing assays in the presence of a compound with the desired properties (positive control), such as mibefradil, and in the absence of pharmacological agents (negative control).

NaV1.3 = target: T2, NaV1.3 (Homo sapiens, UniProt Q9NY46); experiment: VIPR optical membrane potential assay with electrical stimulation, NaV1.3; type: cell-based; details: Table 9, NaV 1.3 receptors
T2 construct: expressed in transfected cells; host or cells: HEK293
Experimental: as §1, with “expressing the NaV of interest” for “expressing the CaV of interest”, “stimulated with either chemical or electrical means” for “stimulated with electrical means”, “evoke a NaV dependent membrane” for “evoke a CaV dependent membrane”
as §2
The following is an example of how NaV1.3 inhibition activity is measured using the optical membrane potential method#2. Other subtypes are performed in an analogous mode in a cell line expressing the NaV of interest.
HEK293 cells stably expressing NaV1.3 are plated into 96-well microtiter plates. After an appropriate incubation period, the cells are stained with the voltage sensitive dyes CC2-DMPE/DiSBAC2(3) as follows.
as §3, with “pluronic,” for “Pluronic,”
2X DISBAC2(3) with ABSC1=6 μM DISBAC2(3) and 1 mM ABSC1: The required amount of 10 mM DISBAC2(3) is added to a 50 ml conical tube and mixed with 1 μL 10% pluronic for each mL of solution to be made and vortexed together. Then HBSS/HEPES is added to make up 2× solution. Finally, the ABSC1 is added.
The 2X DiSBAC2(3) solution can be used to solvate compound plates. Note that compound plates are made at 2× drug concentration. Wash stained plate again, leaving residual volume of 50 Add 50 μL/well of the 2X DiSBAC2(3) w/ABSC1. Stain for 30 minutes in the dark at RT.
as §4
as §5, with “• 1. Insert or use electrodes into each well to be assayed. • 2. Use” for “Use”, “3” for “3-5”, “state. Data Analysis” for “state.”
as §6, §7
Control responses are obtained by performing assays in the presence of a compound with the desired properties (positive control), such as tetracaine, and in the absence of pharmacological agents (negative control). Responses to the negative (N) and positive (P) controls are calculated as above. The compound antagonist activity A is defined as: […]

T1 sequence (Q00975 whole entry): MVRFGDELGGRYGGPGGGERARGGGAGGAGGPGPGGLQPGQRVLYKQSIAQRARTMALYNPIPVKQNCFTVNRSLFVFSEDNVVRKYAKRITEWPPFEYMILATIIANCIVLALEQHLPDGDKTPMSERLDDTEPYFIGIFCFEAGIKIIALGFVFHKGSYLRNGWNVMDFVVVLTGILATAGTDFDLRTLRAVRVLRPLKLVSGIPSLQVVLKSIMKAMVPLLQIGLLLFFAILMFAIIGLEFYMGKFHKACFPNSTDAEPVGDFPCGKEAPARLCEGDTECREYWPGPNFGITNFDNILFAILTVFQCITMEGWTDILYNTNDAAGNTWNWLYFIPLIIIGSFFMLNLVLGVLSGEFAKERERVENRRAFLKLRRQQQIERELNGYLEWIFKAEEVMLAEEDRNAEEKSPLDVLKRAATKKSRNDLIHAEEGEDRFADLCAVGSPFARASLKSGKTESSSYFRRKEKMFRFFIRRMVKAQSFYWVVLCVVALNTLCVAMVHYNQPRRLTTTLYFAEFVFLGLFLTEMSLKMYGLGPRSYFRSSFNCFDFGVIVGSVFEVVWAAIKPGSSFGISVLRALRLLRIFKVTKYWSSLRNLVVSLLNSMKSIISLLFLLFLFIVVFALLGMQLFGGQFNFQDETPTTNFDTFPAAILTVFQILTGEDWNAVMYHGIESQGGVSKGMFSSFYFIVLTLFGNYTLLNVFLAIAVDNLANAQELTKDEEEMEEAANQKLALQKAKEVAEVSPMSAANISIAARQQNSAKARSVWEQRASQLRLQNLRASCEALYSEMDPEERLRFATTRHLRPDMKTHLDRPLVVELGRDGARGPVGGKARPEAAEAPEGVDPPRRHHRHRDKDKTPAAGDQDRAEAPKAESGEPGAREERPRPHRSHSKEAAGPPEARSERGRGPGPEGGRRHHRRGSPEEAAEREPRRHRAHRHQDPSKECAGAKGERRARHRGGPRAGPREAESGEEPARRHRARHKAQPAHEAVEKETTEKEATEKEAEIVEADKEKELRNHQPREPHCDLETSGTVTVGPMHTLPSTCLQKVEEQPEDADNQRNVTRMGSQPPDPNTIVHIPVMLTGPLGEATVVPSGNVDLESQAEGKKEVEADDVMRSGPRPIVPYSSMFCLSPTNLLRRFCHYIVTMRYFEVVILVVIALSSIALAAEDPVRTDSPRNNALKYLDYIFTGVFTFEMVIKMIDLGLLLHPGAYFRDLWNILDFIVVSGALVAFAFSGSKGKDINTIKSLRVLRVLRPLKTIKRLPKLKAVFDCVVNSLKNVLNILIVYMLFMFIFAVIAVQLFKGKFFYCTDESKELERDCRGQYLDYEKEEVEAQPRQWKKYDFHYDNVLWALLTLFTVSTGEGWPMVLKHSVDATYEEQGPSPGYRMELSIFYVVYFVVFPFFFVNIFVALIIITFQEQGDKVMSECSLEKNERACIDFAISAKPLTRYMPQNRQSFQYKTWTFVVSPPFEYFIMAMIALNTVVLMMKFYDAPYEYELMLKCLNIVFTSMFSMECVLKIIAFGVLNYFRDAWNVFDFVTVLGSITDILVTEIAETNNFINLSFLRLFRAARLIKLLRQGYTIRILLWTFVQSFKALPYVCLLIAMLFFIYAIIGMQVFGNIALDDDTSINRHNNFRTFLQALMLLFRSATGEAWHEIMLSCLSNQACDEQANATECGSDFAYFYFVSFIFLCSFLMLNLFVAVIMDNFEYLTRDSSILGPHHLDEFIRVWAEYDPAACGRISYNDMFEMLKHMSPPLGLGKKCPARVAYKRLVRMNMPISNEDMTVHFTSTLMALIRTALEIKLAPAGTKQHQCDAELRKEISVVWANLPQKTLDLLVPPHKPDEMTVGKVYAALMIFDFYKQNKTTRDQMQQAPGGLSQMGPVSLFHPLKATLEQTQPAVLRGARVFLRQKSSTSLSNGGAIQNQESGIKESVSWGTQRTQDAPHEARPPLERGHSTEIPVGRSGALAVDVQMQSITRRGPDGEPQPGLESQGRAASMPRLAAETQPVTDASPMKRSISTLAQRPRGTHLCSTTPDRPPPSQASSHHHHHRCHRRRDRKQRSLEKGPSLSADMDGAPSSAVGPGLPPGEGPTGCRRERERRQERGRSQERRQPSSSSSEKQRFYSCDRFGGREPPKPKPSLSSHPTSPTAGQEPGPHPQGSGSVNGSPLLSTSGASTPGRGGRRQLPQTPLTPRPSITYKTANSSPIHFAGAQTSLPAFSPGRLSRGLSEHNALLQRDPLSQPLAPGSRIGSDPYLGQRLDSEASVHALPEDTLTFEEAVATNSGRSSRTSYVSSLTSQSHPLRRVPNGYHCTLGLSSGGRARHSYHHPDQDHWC
T1 sequence (P54284 whole entry partner): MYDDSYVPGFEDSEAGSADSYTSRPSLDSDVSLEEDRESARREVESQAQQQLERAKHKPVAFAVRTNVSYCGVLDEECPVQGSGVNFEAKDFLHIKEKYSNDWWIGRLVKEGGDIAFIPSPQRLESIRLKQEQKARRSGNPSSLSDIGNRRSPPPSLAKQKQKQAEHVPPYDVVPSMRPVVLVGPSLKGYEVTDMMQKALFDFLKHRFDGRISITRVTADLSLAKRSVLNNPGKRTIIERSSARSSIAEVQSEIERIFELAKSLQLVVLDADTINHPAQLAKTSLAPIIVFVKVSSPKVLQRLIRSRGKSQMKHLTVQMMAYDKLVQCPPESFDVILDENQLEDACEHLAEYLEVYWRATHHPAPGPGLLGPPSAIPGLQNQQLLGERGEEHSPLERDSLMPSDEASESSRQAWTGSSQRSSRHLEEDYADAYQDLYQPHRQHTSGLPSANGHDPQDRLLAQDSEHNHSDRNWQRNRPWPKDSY
T1 sequence (P54289 25-956 partner limits assumed): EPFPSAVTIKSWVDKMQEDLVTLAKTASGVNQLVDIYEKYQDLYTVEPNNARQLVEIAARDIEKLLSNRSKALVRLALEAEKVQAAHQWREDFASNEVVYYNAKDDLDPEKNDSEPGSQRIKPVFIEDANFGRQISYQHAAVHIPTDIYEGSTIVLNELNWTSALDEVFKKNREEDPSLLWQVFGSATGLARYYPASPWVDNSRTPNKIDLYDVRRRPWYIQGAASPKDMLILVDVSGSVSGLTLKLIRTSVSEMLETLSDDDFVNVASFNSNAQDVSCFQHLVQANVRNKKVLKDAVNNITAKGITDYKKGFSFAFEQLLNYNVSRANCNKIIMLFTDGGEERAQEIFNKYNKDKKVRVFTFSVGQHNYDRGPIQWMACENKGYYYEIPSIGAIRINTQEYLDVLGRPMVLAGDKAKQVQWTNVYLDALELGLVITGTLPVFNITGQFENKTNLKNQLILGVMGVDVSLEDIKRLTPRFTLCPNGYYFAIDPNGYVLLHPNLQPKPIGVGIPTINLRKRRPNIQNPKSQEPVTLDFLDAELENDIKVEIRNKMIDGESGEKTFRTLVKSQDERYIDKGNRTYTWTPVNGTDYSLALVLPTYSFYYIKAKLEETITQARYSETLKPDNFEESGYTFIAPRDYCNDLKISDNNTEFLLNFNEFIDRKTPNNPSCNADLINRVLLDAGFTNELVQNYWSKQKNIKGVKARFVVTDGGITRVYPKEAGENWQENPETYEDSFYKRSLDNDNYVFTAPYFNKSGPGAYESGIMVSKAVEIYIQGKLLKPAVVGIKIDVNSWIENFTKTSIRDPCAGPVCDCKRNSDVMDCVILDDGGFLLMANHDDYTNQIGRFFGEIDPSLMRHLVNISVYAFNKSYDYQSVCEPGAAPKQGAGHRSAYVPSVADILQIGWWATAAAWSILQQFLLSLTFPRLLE
T1 sequence (P54289 957-1103 partner limits assumed): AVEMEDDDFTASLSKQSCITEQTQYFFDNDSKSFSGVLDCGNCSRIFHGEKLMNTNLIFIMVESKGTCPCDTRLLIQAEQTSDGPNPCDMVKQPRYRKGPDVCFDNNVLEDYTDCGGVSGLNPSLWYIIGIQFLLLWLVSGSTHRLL

| SMILES | IC50 (CaV2.2) | IC50 (NaV1.3) |
| --- | --- | --- |
| COCCNc1ncc(C(=O)N(C)C2CCCCC2)c(-c2ccc(C#N)cc2)n1 [compound 256] | > 10 µM | > 10 µM |
| CC1CC(C)CN(C(=O)c2cnc(N3CCOCC3)nc2-c2ccccc2F)C1 (stereo not drawn) [compound 279] | > 10 µM | > 10 µM |
| CC(=O)N1CCN(c2ncc(C(=O)N(C)CC(C)C)c(-c3ccc(-c4ccccc4)cc3)n2)CC1 [compound 225] | 2 to 10 µM | > 10 µM |
| CC(=O)NCCNC(=O)c1cnc(N2CCCC2)nc1-c1ccc(-c2ccccc2)cc1 [compound 281] | > 10 µM | > 10 µM |
| CCC(C)Nc1ncc(C(=O)NC2CCCCC2C)c(-c2ccccc2F)n1 (stereo not drawn) [compound 253] | > 10 µM | > 10 µM |
| COCCCNC(=O)c1cnc(NCCc2ccc(OC)cc2)nc1-c1cccc(C)c1 [compound 258] | > 10 µM | > 10 µM |
| CC1CCN(c2ncc(C(=O)N(C)C3CCCCC3)c(-c3ccc(C#N)cc3)n2)CC1 [compound 241] | > 10 µM | > 10 µM |
| CCC(C)NC(=O)c1cnc(NC2CC3CC(C2C)C3(C)C)nc1-c1ccc(C#N)cc1 (stereo not drawn) [compound 228] | > 10 µM | > 10 µM |
| CC1CC(C)CN(C(=O)c2cnc(NCc3cccc(Cl)c3)nc2-c2ccc(C#N)cc2)C1 (stereo not drawn) [compound 238] | > 10 µM | > 10 µM |
| O=C(c1cnc(NCc2ccccc2C(F)(F)F)nc1-c1ccccc1F)N1CCOCC1 [compound 252] | > 10 µM | > 10 µM |
| CCN(Cc1cccc(C)c1)C(=O)c1cnc(NC2CCCC2)nc1-c1ccc(C#N)cc1 [compound 239] | 2 to 10 µM | > 10 µM |
| COc1ccccc1CCNC(=O)c1cnc(N2CCCC2)nc1-c1cccc(C)c1 [compound 272] | > 10 µM | > 10 µM |
| COCCCNc1ncc(C(=O)N2CCCCC2)c(-c2cccc(C)c2)n1 [compound 274] | > 10 µM | > 10 µM |
| CC1C(NC(=O)c2cnc(N3CCOCC3)nc2-c2ccc(C#N)cc2)CC2CC1C2(C)C (stereo not drawn) [compound 217] | > 10 µM | > 10 µM |
| CCN(Cc1ccccc1)C(=O)c1cnc(NCc2ccc3c(c2)OCO3)nc1-c1ccccc1F [compound 222] | > 10 µM | > 10 µM |
| COc1cccc(OC)c1CNc1ncc(C(=O)N(C)C2CCCCC2)c(-c2ccc(C#N)cc2)n1 [compound 280] | > 10 µM | > 10 µM |
| CCN(Cc1ccccc1)C(=O)c1cnc(N2CCOCC2)nc1-c1cccc(C)c1 [compound 243] | > 10 µM | > 10 µM |
| Cc1cccc(-c2nc(NCc3ccc4c(c3)OCO4)ncc2C(=O)N2CCOCC2)c1 [compound 264] | > 10 µM | > 10 µM |
| COc1cccc(OC)c1CNc1ncc(C(=O)N(C)CC(C)C)c(-c2ccccc2F)n1 [compound 255] | > 10 µM | > 10 µM |

Further lines, results first:

| IC50 (CaV2.2) | IC50 (NaV1.3) | SMILES |
| --- | --- | --- |
| 2 to 10 µM | > 10 µM | CC(C)N(Cc1ccccc1)C(=O)c1cnc(N2CCOCC2)nc1-c1ccccc1F [compound 326, 4-(2-Fluoro-phenyl)-2-morpholin-4-yl-pyrimidine-5-carboxylic acid benzyl-isopropyl-amide] |
| > 10 µM | > 10 µM | CCC1CCC(C)N(C(=O)c2cnc(NCCCOC)nc2-c2ccc(C#N)cc2)C1 (stereo not drawn) [compound 294] |
| > 10 µM | > 10 µM | Cc1cccc(-c2nc(NCC3CCCCC3)ncc2C(=O)N2CCOCC2)c1 [compound 306] |
| > 10 µM | > 10 µM | COCCNc1ncc(C(=O)N(Cc2ccccc2)C(C)C)c(-c2ccccc2F)n1 [compound 300] |
| > 10 µM | > 10 µM | CCN(Cc1ccccc1)C(=O)c1cnc(N2CCN(C(C)=O)CC2)nc1-c1ccccc1F [compound 290] |
| > 10 µM | > 10 µM | CCN(Cc1ccccc1)C(=O)c1cnc(NCCCOC)nc1-c1ccccc1F [compound 327] |
| > 10 µM | > 10 µM | CC(C)N(Cc1ccccc1)C(=O)c1cnc(NCc2ccc3c(c2)OCO3)nc1-c1ccccc1F [compound 301] |
| > 10 µM | > 10 µM | Cc1cccc(-c2nc(N3CCOCC3)ncc2C(=O)NCc2cccc(C(F)(F)F)c2)c1 [compound 293] |
| > 10 µM | > 10 µM | CCCCNc1ncc(C(=O)N2CC(C)CC(C)C2)c(-c2ccc(C#N)cc2)n1 (stereo not drawn) [compound 320] |
| > 10 µM | > 10 µM | CC1CC(C)CN(C(=O)c2cnc(N3CCOCC3)nc2-c2ccc(C#N)cc2)C1 (stereo not drawn) [compound 333] |
| > 10 µM | > 10 µM | CCN(Cc1cccc(C)c1)C(=O)c1cnc(NCCNC(C)=O)nc1-c1ccccc1F [compound 308] |
| > 10 µM | > 10 µM | CCC(C)NC(=O)c1cnc(NCCc2ccc(Cl)cc2)nc1-c1ccccc1F (stereo not drawn) [compound 305] |
| > 10 µM | > 10 µM | COCCCNC(=O)c1cnc(N2CCOCC2)nc1-c1ccc(C#N)cc1 [compound 349] |
| > 10 µM | > 10 µM | CCN(C)c1ncc(C(=O)NCCOC)c(-c2ccc(C#N)cc2)n1 [compound 314] |
| > 10 µM | > 10 µM | COCCCNC(=O)c1cnc(N2CCN(C(C)=O)CC2)nc1-c1cccc(C)c1 [compound 339] |
| > 10 µM | > 10 µM | COc1ccc(CCNc2ncc(C(=O)N3CCC(C)CC3)c(-c3ccc(C#N)cc3)n2)cc1 [compound 316] |
| > 10 µM | > 10 µM | Cc1cccc(-c2nc(NCc3ccccc3)ncc2C(=O)N2CCOCC2)c1 [compound 304] |
| 2 to 10 µM | > 10 µM | CC(=O)N1CCN(c2ncc(C(=O)N3CCC(C)CC3)c(-c3ccc(-c4ccccc4)cc3)n2)CC1 [compound 334] |
| > 10 µM | > 10 µM | CCN(Cc1ccccc1)C(=O)c1cnc(N2CCOCC2)nc1-c1ccccc1F [compound 350] |
| > 10 µM | > 10 µM | CCN(Cc1ccccc1)C(=O)c1cnc(N2CCCC2)nc1-c1ccc(C#N)cc1 [compound 340] |
